Tests used:
Experiment in all cases: relative viability (nuclei count vs DMSO), 5 days (fraction); higher = more cells survive
Idelalisib + Pictilisib = compound: CC[C@H](Nc1ncnc2[nH]cnc12)c1nc2cccc(F)c2c(=O)n1-c1ccccc1 [Idelalisib] + CS(=O)(=O)N1CCN(Cc2cc3nc(-c4cccc5[nH]ncc45)nc(N4CCOCC4)c3s2)CC1 [Pictilisib] (partner 1 µM)
Procedure, shortened: (§1)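 Relative viability equals treated-well nuclei counts divided by vehicle-well nuclei counts. Counts came from 4× images of lung cancer cell lines grown in 1536-well plates for 5 days after pin-tool dosing on the day after seeding. Dosing used one drug alone or a fixed anchor-drug dose plus five library-drug doses (not always all listed) in √10 steps, and values are medians of duplicate plates.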

Pemetrexed + Bortezomib = compound: Nc1nc2[nH]cc(CCc3ccc(C(=O)N[C@@H](CCC(=O)O)C(=O)O)cc3)c2c(=O)[nH]1 [Pemetrexed] + CC(C)C[C@H](NC(=O)[C@H](Cc1ccccc1)NC(=O)c1cnccn1)B(O)O [Bortezomib] (partner 0.002 µM)
Procedure, shortened: as §1

Pemetrexed + Phenformin = compound: Nc1nc2[nH]cc(CCc3ccc(C(=O)N[C@@H](CCC(=O)O)C(=O)O)cc3)c2c(=O)[nH]1 [Pemetrexed] + N=C(N)NC(=N)NCCc1ccccc1 [Phenformin] (partner 250 µM)
Procedure, shortened: as §1

Pemetrexed + AZD7762 = compound: Nc1nc2[nH]cc(CCc3ccc(C(=O)N[C@@H](CCC(=O)O)C(=O)O)cc3)c2c(=O)[nH]1 [Pemetrexed] + NC(=O)Nc1cc(-c2cccc(F)c2)sc1C(=O)N[C@H]1CCCNC1 [AZD7762] (partner 0.2 µM)
Procedure, shortened: as §1

Cell Line	relative viability (Idelalisib + Pictilisib; first compound 0.04 µM)	relative viability (Idelalisib + Pictilisib; first compound 0.1265 µM)	relative viability (Idelalisib + Pictilisib; first compound 0.4 µM)	relative viability (Idelalisib + Pictilisib; first compound 1.265 µM)	relative viability (Idelalisib + Pictilisib; first compound 4 µM)	relative viability (Pemetrexed + Bortezomib; first compound 0.002 µM)	relative viability (Pemetrexed + Bortezomib; first compound 0.006325 µM)	relative viability (Pemetrexed + Bortezomib; first compound 0.02 µM)	relative viability (Pemetrexed + Bortezomib; first compound 0.06325 µM)	relative viability (Pemetrexed + Bortezomib; first compound 0.2 µM)	relative viability (Pemetrexed + Phenformin; first compound 0.002 µM)	relative viability (Pemetrexed + Phenformin; first compound 0.006325 µM)	relative viability (Pemetrexed + Phenformin; first compound 0.02 µM)	relative viability (Pemetrexed + Phenformin; first compound 0.06325 µM)	relative viability (Pemetrexed + Phenformin; first compound 0.2 µM)	relative viability (Pemetrexed + AZD7762; first compound 0.002 µM)	relative viability (Pemetrexed + AZD7762; first compound 0.006325 µM)	relative viability (Pemetrexed + AZD7762; first compound 0.06325 µM)	relative viability (Pemetrexed + AZD7762; first compound 0.2 µM)	relative viability (Pemetrexed + AZD7762; first compound 0.02 µM)
NCI-H650	0.849	0.858	0.907	0.819	0.783	0.67	0.828	0.748	0.853	0.866	0.406	0.468	0.457	0.428	0.469	0.966	0.939	0.83	0.931	
NCI-H727	0.385	0.66	0.312	0.773	0.476	0.807	0.892	0.74	0.897	0.742		0.484	0.474	0.633	0.525	0.773	0.573	0.523	0.653	0.763
NCI-H838	0.505	0.469	0.346	0.531	0.469	0.895	0.708	1.07	0.63	0.208	0.616	0.546	0.792	0.379	0.155	0.934	0.862	0.635	0.579	0.757
NCI-H1355	0.521	0.501	0.4	0.376	0.449	0.952	1.33	1.21	1.21	1.15	0.432	0.468	0.45	0.503	0.438	0.732	0.838	0.794	0.808	0.771
NCI-H1437	0.491	0.526	0.429	0.437	0.525	0.31	0.478	0.514	0.313	0.26		0.348	0.281	0.196	0.163	1.03	1.1	0.323	0.231	1.06
NCI-H1651	0.685	0.574	0.523	0.762	0.625	0.992	0.919	0.945	0.892	0.911	0.299	0.354	0.377	0.285	0.368	0.412	0.452	0.44	0.455	0.51
NCI-H1666	0.541	0.48	0.469	0.361	0.333	0.682	0.752	0.875	0.766	0.421	0.577	0.55	0.625	0.551	0.537	0.79	0.843	0.72	0.456	0.835
NCI-H1734	0.519	0.492	0.41	0.453	0.37	0.911	1.01	0.929	0.944	0.705	0.459	0.343	0.458	0.373	0.386	0.415	0.584	0.508	0.332	0.649
NCI-H1755	0.444	0.466	0.358	0.41	0.372	0.819	0.952	1.04	1.01	0.867	0.594	0.409	0.647	0.627	0.507	0.42	0.453	0.393	0.295	0.483
NCI-H1792	0.279	0.251	0.268	0.275	0.249	0.931	0.969	0.966	0.943	0.927	0.311	0.368	0.297	0.252	0.272	0.608	0.633	0.676	0.633	0.697
NCI-H1915	1.22	0.952	0.881	1.08	0.9	0.937	1.02	1.04	0.965	0.943	0.358	0.39	0.373	0.357	0.381	0.6	0.638	0.599	0.652	0.751
NCI-H1975	0.324	0.295	0.249	0.316	0.271		0.427	0.386	0.309	0.213	0.331	0.39	0.413	0.32	0.237		0.819	0.583	0.35	0.818
NCI-H1993	0.804	0.8	0.807	0.896	0.803	1.04	1.08	1.22	0.99	0.695	0.445	0.455	0.493	0.532	0.489	0.546	0.825	0.563	0.481	0.779
NCI-H2085	0.531	0.452	0.38	0.451	0.413	1.01	1.19	1.04	1.09	1.05	0.664	0.685	0.735	0.808	0.779	0.921	0.936	0.959	0.916	1.04
NCI-H2087	0.989	0.743	0.853	0.907	0.904	0.834	0.639	0.919	1.04	0.523	0.397	0.446	0.475	0.473	0.47	1.2	1.22	1.3	0.799	1.44
NCI-H2126	0.525	0.53	0.404	0.515	0.521	1.04	1.14	1.19	1.06	1.06	0.536	0.555	0.574	0.507	0.486	0.904	0.954	1.01	0.879	1.06

— the supplement of paper PMC10307832
